Five compounds from publication PMC9942557, “Bolaamphiphile Analogues of 12-bis-THA Cl2 Are Potent Antimicrobial Therapeutics with Distinct Mechanisms of Action against Bacterial, Mycobacterial, and Fungal Pathogens” (mSphere, 2022) can be followed below.

SMILES strings stand for the structures. Like-named read-outs stand apart in the source and are kept apart here.

Assay [1] deals with Escherichia coli ATCC 25922. In words: Intrahemocoelic G. mellonella infection model. It is filed as in vivo, Galleria mellonella. The settings on record: single 10-mg/kg dose 1 h after infection. The procedure: The antimicrobial activities of DQC, CM2, and its analogues Quino-bola, Penta-bola, Hepta-bola, and Octa-bola against Escherichia coli ATCC 25922 were tested in Galleria mellonella larvae. All assays were performed on two separate occasions using a group size of 10 larvae; the larvae were kept in separate petri dishes and in a static incubator at 37°C during the period of the experiment. A suspension of E. coli ATCC 25922 was prepared by transferring two colonies of E. coli ATCC 25922 from a fresh agar plate into PBS and adjusting the absorbance to a McFarland 0.5 standard. The number of CFU per milliliter of this suspension was determined and corresponded to 1 × 10^8 CFU/mL. Larvae were injected beneath the tegument with 10 μL of a 1 × 10^7-CFU/mL bacteria suspension, corresponding to 1 × 10^5 CFU per larva. A 50-μL Hamilton syringe with a G27 needle was used for the injection. […] Ten microliters of stock solution was injected into each larva 1 h after infection (10 mg/kg). Levofloxacin (LVX; 50 μg/mL = 2 mg/kg) and PBS were used as positive and negative controls, respectively. A noninfected PBS injection was included to control for the effects of injection. Survival was monitored over a period of 70 to 72 h. Changes in G. mellonella survival were analyzed by the log rank (Mantel-Cox) method and plotted as Kaplan-Meier survival curves using GraphPad Prism version 7.

For the next assay, the system named is C. auris temp probe. The experiment in a line: Broth microdilution MIC. It is filed as cell-based, Candida auris. The settings on record: C. auris temp probe.
Assay [2] concerns Escherichia coli NCTC 12923. In words: Broth microdilution MIC. It is filed as cell-based. In general terms: Broth dilution looks for growth in wells or tubes with falling amounts of substance.
The nature of assay [3]: Patch-clamp conductance in model membranes. The settings on record: bilayers composed of DPhPG. The procedure:
Giant unilamellar vesicles (GUVs) composed of DiPhytanoly PhosphatidylGlycerol (DPhPG) were prepared in the presence of 1 M sorbitol by the electroformation method in an indium-tin oxide (ITO)-coated glass chamber connected to the Nanion Vesicle Prep Pro setup (Nanion Technologies GmbH, Munich, Germany) using a 3-V peak-to-peak AC voltage at a frequency of 5 Hz for 140 min at 37°C ([30][–][32]). Bilayers were formed by adding the GUV solution to a buffer containing 250 mM KCl, 50 mM MgCl2, and 10 mM HEPES (pH 7.00) onto an aperture in a borosilicate chip (Port-a-Patch; Nanion Technologies) and applying 7,000 to 9,000 Pa negative pressure, resulting in a solvent-free membrane with a resistance in the GΩ range. […] After formation, a small amount of bolalipid stock solution (in water) was added to 50 μL of buffer solution in order to obtain its active concentration. All the experiments were carried out with a positive holding potential of 50 mV. […] For all the experiments, a minimum of 6 concordant repeats were done. Current traces were recorded at a sampling rate of 50 kHz using an EPC-10 amplifier from HEKA Elektronik (Lambrecht, Germany). The system was computer controlled by PatchControl software (Nanion) and GePulse (Michael Pusch, Genoa, Italy [http://users.ge.ibf.cnr.it/pusch/software-mik.htm]). […]

Assay [4] deals with VS Enterococcus faecalis NCTC 775. The experiment in a line: Broth microdilution MIC. It is filed as cell-based.
Assay [5] deals with Klebsiella pneumoniae NCTC 13368. The experiment in a line: Broth microdilution MIC. It is filed as cell-based.
A further assay relates to C. albicans 3179. The experiment in a line: Broth microdilution MIC. In kind it is cell-based, Candida albicans. The settings on record: C. albicans 3179.
In assay [6] the test system is Pseudomonas aeruginosa NCTC 13437. The experiment in a line: Broth microdilution MIC. In kind it is cell-based.
Assay [7] concerns EMR Staphylococcus aureus 15 NCTC 13616. In words: Broth microdilution MIC. In kind it is cell-based.
In assay [8] the test system is Gram-positive bacteria (avg). The experiment in a line: Selectivity index (toxicity/potency). In kind it is cell-based. The settings on record: ratio of average toxicity (HEK293 and HeLa) to average potency.
For another assay, the system named is Fungi (avg). The experiment in a line: Selectivity index (toxicity/potency). In kind it is cell-based, Candida spp. Particulars: ratio of average toxicity (HEK293 and HeLa) to average potency. The source says: TABLE 3 Selectivity indices of bolaamphiphiles | column: Selectivity of^a: / 12-bis-THA Cl2; Selectivity of^a: / Dequalinium; Selectivity of^a: / Quino-bola; Selectivity of^a: / Penta-bola; Selectivity of^a: / Hepta-bola; Selectivity of^a: / Octa-bola; Selectivity of^a: / Octa-C10; Selectivity of^a: / Octa-C8; Selectivity of^a: / Octa-C6

Assay [9] concerns M. tuberculosis Bleupan. It is filed as in vivo, Galleria mellonella.
Another assay relates to G. vaginalis KC2. In words: Anaerobic broth microdilution MIC (BHI, 5% horse serum). The settings on record: Gardnerella vaginalis, read-out: MIC. It is filed as cell-based, Gardnerella vaginalis.
Another assay has as its system G. vaginalis NCTC 10287. The assay is described as above. In kind it is cell-based, Gardnerella vaginalis. The settings on record: Gardnerella vaginalis, NCTC10287, read-out: MIC.
In assay [10] the test system is M. tuberculosis Bleupan. In words: Selectivity index (toxicity/potency). In kind it is cell-based, Mycobacterium tuberculosis. The settings on record: ratio of average toxicity (HEK293 and HeLa) to potency. The source says: TABLE 3 Selectivity indices of bolaamphiphiles | column: Selectivity of^a: / 12-bis-THA Cl2; Selectivity of^a: / Dequalinium; Selectivity of^a: / Penta-bola; Selectivity of^a: / Octa-bola; Selectivity of^a: / Octa-C8; Selectivity of^a: / Octa-C6

The subject of the next assay is Candida auris TGD1912. In words: MIC. It is filed as cell-based.
Where [11] appears, read: EMR Staphylococcus aureus 15 NCTC 13616.
[12] abbreviates: Candidozyma auris, read-out: MIC.
[13] abbreviates: Candida albicans, read-out: MIC.
Where [14] appears, read: NCTC13616, EMR Staphylococcus aureus 15 NCTC 13616, read-out: MIC.

A word on the MIC: it is the least concentration at which growth counts as inhibited. `Nc1c2c([n+](CCCCCCCCCCCC[n+]3c4c(c(N)c5ccccc53)CCCC4)c3ccccc13)CCCC2` [12-bis-THA Cl2, 12,12′-(Dodecane-1,12-diyl)-bis-(9-amino-1,2,3,4-tetrahydroacridinium) chloride]: in assay [1], the “protection (survival over 72 h)” value was “survival was somewhat better than that obtained in the absence of treatment”. The MIC in the assay with C. auris temp probe was 2 µg/mL; in assay [2], 4 µg/mL; in [4], 2 µg/mL; in assay [5] it was 32 µg/mL; against C. albicans 3179 it was 0.25 µg/mL; in assay [6], 32 µg/mL. Also, the minimum inhibitory concentration (MIC) in assay [7] (setting [11]) was 0.25 µg/mL. Besides, the “concentration required to induce any conductance” value in assay [3] is 90 µM.
In the case of `Cc1cc(N)c2ccccc2[n+]1CCCCCCCCCC[n+]1c(C)cc(N)c2ccccc21` [Dequalinium, dequalinium chloride, reference compound], in assay [1], the “protection (survival over 72 h)” value was “protective”. Moreover, the MIC was 4 µg/mL in the assay with C. auris temp probe (setting [12]); 32 µg/mL in assay [2] (NCTC12923, read-out: MIC); 32 µg/mL in assay [4] (NCTC775, read-out: MIC); > 32 µg/mL in assay [5] (NCTC13368, read-out: MIC); 4 µg/mL in the assay with G. vaginalis KC2; 0.5 µg/mL in the assay with C. albicans 3179 (setting [13]). Further, the MIC in assay [6] (NCTC13437, read-out: MIC) was > 32 µg/mL; in [7] (setting [14]) it was 8 µg/mL; in the assay on G. vaginalis NCTC 10287, 2 µg/mL. Moreover, the “concentration required to induce any conductance” value in [3] was 90 µM. The results for the Selectivity index (in [8]; with Fungi (avg); in the assay on M. tuberculosis Bleupan [10]) were 2.65, 26.8 and 6.35, respectively. The survival result is “lower survival” with M. tuberculosis Bleupan [9] (0.1 mg/kg) and “indifferent” in the assay on M. tuberculosis Bleupan [9] (higher or lower doses than 0.1 mg/kg).
On to `Nc1c2c([n+](CCCCCCCCCCCC[n+]3c4c(c(N)c5ccccc53)CCCCCC4)c3ccccc13)CCCCCC2` [Octa-bola], for which the “protection (survival over 72 h)” value in [1] is recorded as “significantly protective”. The MIC in the assay on C. auris temp probe (setting [12]) stood at 1 µg/mL; in assay [2] (NCTC12923, read-out: MIC), 2 µg/mL; in assay [4] (NCTC775, read-out: MIC), 0.5 µg/mL; in [5] (NCTC13368, read-out: MIC) it was 32 µg/mL; in the assay with C. albicans 3179 (setting [13]), 0.5 µg/mL; in assay [6] (NCTC13437, read-out: MIC) it was 32 µg/mL. The minimum inhibitory concentration (MIC) in [7] (setting [14]) turned out to be 0.125 µg/mL. The Selectivity index is 17.4 in [8], 8.30 in the assay with Fungi (avg) and 17.3 in the assay with M. tuberculosis Bleupan [10]. Besides, the infected larvae rescued entry in the assay on M. tuberculosis Bleupan [9] (1 mg/kg) is listed as “about half”.
`Nc1c2c([n+](CCCCCCCCCCCC[n+]3c4c(c(N)c5ccccc53)CCC4)c3ccccc13)CCC2` [Penta-bola]: the “protection (survival over 72 h)” value in assay [1] is given as “neither Quino-bola nor Penta-bola offered significant protection”. The minimum inhibitory concentration (MIC) was determined as 2 µg/mL in the assay with C. auris temp probe; 16 µg/mL in assay [2]; 2 µg/mL with Candida auris TGD1912; 4 µg/mL in [4]; 32 µg/mL in assay [5]; 0.25 µg/mL with C. albicans 3179. Besides, the minimum inhibitory concentration (MIC) in assay [6] is >32 µg/mL; in [7] (setting [11]) it was 0.5 µg/mL.
Turning to `Cc1c(N)c2ccccc2[n+](CCCCCCCCCCCC[n+]2c(C)c(C)c(N)c3ccccc32)c1C` [Quino-bola], in [1], the “protection (survival over 72 h)” value is given as “neither Quino-bola nor Penta-bola offered significant protection”. Moreover, the MIC in the assay with C. auris temp probe (setting [12]) was 2 µg/mL; in [2] (NCTC12923, read-out: MIC) it was 8 to 16 µg/mL; in [4] (NCTC775, read-out: MIC), 4 µg/mL; in [5], 32 µg/mL; with C. albicans 3179 (setting [13]), 0.25 µg/mL; in assay [6], > 32 µg/mL. In addition, 1 µg/mL was the least that counted as inhibitory in assay [7] (Staphylococcus aureus, NCTC13616) (MIC). The Selectivity index in [8] was 8.94; in the assay on Fungi (avg), 31.8.
